The assay deals with T1, WT TREK-2 (Homo sapiens, UniProt P57789).
T1 construct: full-length WT TREK-2 channels, we examined its effects on the mean open time of TREK-2 channels expressed in HEK293 cells; expressed in transfected cells; host or cells: HEK293 cells, transient transfection with pcDNA3
T1 sequence (P57789 1-543 isoform P57789-4): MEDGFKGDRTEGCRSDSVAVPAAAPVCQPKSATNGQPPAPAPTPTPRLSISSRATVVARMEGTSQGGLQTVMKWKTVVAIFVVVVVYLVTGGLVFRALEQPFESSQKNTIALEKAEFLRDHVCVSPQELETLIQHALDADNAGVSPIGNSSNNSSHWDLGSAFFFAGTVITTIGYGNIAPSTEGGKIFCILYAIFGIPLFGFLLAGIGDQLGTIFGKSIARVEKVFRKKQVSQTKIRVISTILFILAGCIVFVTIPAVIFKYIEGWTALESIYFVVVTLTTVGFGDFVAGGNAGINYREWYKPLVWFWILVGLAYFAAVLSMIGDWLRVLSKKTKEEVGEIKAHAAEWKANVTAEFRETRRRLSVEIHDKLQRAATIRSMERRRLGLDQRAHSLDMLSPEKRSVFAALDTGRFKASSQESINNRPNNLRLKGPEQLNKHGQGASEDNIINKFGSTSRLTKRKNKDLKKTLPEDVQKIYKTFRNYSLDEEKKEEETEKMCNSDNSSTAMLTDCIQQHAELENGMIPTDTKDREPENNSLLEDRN
The experiment in a line: Single-channel recordings of WT TREK-2 in excised patches from HEK293 cells. It counts as cell-based. How it is done:
Full-length human TREK-2 isoform 3 (NCBI accession no. NP_612191) was used throughout this study and was subcloned into the pFAW vector for expression in oocytes. The truncated construct used to generate protein (TREK-2ΔN/ΔC) is identical to that used previously to obtain crystal structures ([Dong et al., 2015]); it contains a deletion of 71 residues at the N terminus and 213 residues at the C terminus. […] Desamino chloro-fluoxetine (Toronto Research Chemicals) was dissolved in chloroform and diluted to working concentrations on the day of experimenting (maximum final concentration was 0.01%).
HEK293 cells were cultured in DMEM (Sigma) containing 10% FBS (Life Technologies), 3 mM glucose, and 2 mM glutamine at 37°C in a humidified atmosphere of 5% CO2/[…] at 37°C. Cells were transiently transfected with 0.2 µg channel pcDNA3 per dish using FuGENE 6 according to the manufacturer’s instructions. Cells were used 1–2 d after transfection.
For currents recorded in Xenopus laevis oocytes, giant-patch electrodes were pulled from thick-walled borosilicate glass and polished to give pipette resistances of ∼0.3–0.5 MΩ when filled with patch solution. Pipette solution contained (in mM) 116 NMDG, 4 KCl, 1 MgCl2, 3.6 CaCl2, and 10 HEPES (pH 7.4), while the bath solution contained (in mM) 120 KCl, 1 NaCl, 2 EGTA, and 10 HEPES (pH 7.3). Patches were perfused via a gravity-flow perfusion system and a HEKA EPC 10 USB single computer–controlled amplifier was used and currents recorded using a Patchmaster v2 × 90.5 (HEKA Electronics), filtered at 1 kHz, and sampled at 10 kHz. For currents recorded in HEK293 cells, patch electrodes were pulled from thick-walled borosilicate glass and polished to give pipette resistances of ∼3–5 MΩ when filled with patch solution. The currents were recorded from excised patches with both intracellular and extracellular solution containing 200 mM KCl and 10 mM HEPES (pH 6.0 with KOH). Patches were perfused via a gravity-flow perfusion system. Data were acquired with pClamp and recorded using an Axopatch 200B (Molecular Devices), filtered at 5 kHz, and sampled at 200 kHz. Single-channel currents were analyzed in an identical manner to those obtained from bilayers (see above).

`NCCC(Oc1ccc(C(F)(F)F)cc1)c1ccccc1` (stereo not shown) [NFx, norfluoxetine]: the “mean Po” value (10 µM NFx in the presence of 100 µM ML335, −40 mV) worked out at 0.69 ± 0.2. Also, for the setting “10 µM NFx in the presence of 100 µM ML335 vs ML335 alone, −40 mV”, the “amplitude ratio of γ” value is recorded as 1.00 ± 0.01. In addition, the “reduction of τo (mean open time)” value (10 µM NFx, Fig. S6) is given as roughly 30%. Besides, the “reduction of Po of WT TREK-2 channel” value (10 µM NFx, no further change in the presence of NFx, as in Fig. S6) was found to be 79 ± 0.05%. Under “10 µM NFx, −10 mV”, the “τo (mean open time)” value is on record as 0.89 ms. Besides, where the note is “10 µM, −40 mV (Fig. 6B)”, the “reduction in γ (single-channel current amplitude)” value turned out to be 11 ± 7% and the “reduction of channel Po” value is on record as 70 ± 0.03%.
